# Reference: patent US20210009541A1, “FUNGICIDAL OXADIAZOLES” (Bayer Aktiengesellschaft, priority 2018, published 2021)
# Marks after values point to notes of the source that are not given here.
# Assay: LogP by HPLC on reversed phase columns (EEC directive 79/831 Annex V.A8)
# Assay type: physicochemical
# Conditions: not given
# Method: [table] If more than one Log P value is available within the same method, all the values are given and separated by “+”. […] Lambda-max-values were determined using UV-spectra from 200 nm to 400 nm and the peak values of the chromatographic signals.
row,Structure (SMILES),LogP
1,FC(F)(Cl)c1nc(-c2ccc3nc[nH]c3c2)no1 [Compound I-041],1.57^[a]
2,Cn1cnc2cc(-c3noc(C(F)(F)F)n3)ccc21 [Compound I-003],1.70^[a]
3,COCCn1ncc2ccc(-c3noc(C(F)(F)F)n3)cc21 [Compound I-016],3.35^[a]
4,CCC(=O)N1CCc2ccc(-c3noc(C(F)(F)Cl)n3)cc2C1 [Compound I-033],3.31^[a]
5,COCCC(=O)N(OC)C1CCCc2cc(-c3noc(C(F)(F)F)n3)ccc21 (stereo not drawn) [Compound I-021],3.96^[a]
6,CC(C)(C)OC(=O)N1CCc2cc(-c3noc(C(F)(F)F)n3)ccc2C1 [Compound I-038],4.93^[a]
7,CON(C(=O)C1CC1)C1CCCc2cc(-c3noc(C(F)(F)F)n3)ccc21 (stereo not drawn) [Compound I-019],4.44^[a]
8,FC(F)(F)c1nc(-c2ccc3cn(Cc4ccccc4)nc3c2)no1 [Compound I-008],4.03^[a]
9,COCCOC(=O)N(OC)C1CCCc2cc(-c3noc(C(F)(F)F)n3)ccc21 (stereo not drawn) [Compound I-025],4.27^[a]
10,CCn1cc2ccc(-c3noc(C(F)(F)F)n3)cc2n1 [Compound I-015],3.21^[a]
11,COC(=O)N(OC)C1CCCc2cc(-c3noc(C(F)(F)F)n3)ccc21 (stereo not drawn) [Compound I-024],4.34^[a]
12,CN(C)C(=O)Oc1ccc2cc(-c3noc(C(F)(F)F)n3)ccc2c1 [Compound I-034],4.18^[a]
13,CCn1cc2cc(-c3noc(C(F)(F)F)n3)ccc2n1 [Compound I-010],3.15^[a]
14,FC(F)(F)c1nc(-c2ccc3nc[nH]c3c2)no1 [Compound I-002],1.46^[a]
15,CCn1ncc2cc(-c3noc(C(F)(F)F)n3)ccc21 [Compound I-011],3.67^[a]
16,CCC(=O)N1CCCc2cc(-c3noc(C(F)(F)F)n3)ccc21 [Compound I-030],3.68^[a]
17,CON(C(=O)c1ccccc1)C1CCCc2cc(-c3noc(C(F)(F)F)n3)ccc21 (stereo not drawn) [Compound I-022],4.72^[a]
18,COCCn1cc2ccc(-c3noc(C(F)(F)F)n3)cc2n1 [Compound I-017],3.00^[a]
19,Nc1ccc2cc(-c3noc(C(F)(F)F)n3)ccc2c1 [Compound I-042],3.47^[a]
20,Cn1cnc2ccc(-c3noc(C(F)(F)F)n3)cc21 [Compound I-004],1.67^[a]
21,FC(F)(F)c1nc(-c2ccc3cn[nH]c3c2)no1 [Compound I-006],2.70^[a]
22,COC(=O)N1CCc2ccc(-c3noc(C(F)(F)F)n3)cc2C1 [Compound I-032],3.59^[a]
23,COC(=O)N1CCCc2cc(-c3noc(C(F)(F)Cl)n3)ccc21 [Compound I-027],4.27^[a]
24,CCC(=O)N1CCc2ccc(-c3noc(C(F)(F)F)n3)cc2C1 [Compound I-031],3.11^[a]
25,CCC(=O)N1CCCc2cc(-c3noc(C(F)(F)Cl)n3)ccc21 [Compound I-029],3.90^[a]
26,O=C(O)c1cn2cc(-c3noc(C(F)(F)F)n3)ccc2n1 [Compound I-040],1.41^[a]

# Further lines, results first:
row,LogP,Structure (SMILES)
1,4.28^[a],Fc1cc2c(cnn2Cc2ccccc2)cc1-c1noc(C(F)(F)F)n1 [Compound I-064]
2,3.83^[a],COC(=O)N1CCc2ccc(-c3noc(C(F)(F)Cl)n3)cc2C1 [Compound I-026]
3,4.03^[a],FC(F)(F)c1nc(-c2ccc3nn(Cc4ccccc4)cc3c2)no1 [Compound I-012]
4,2.31^[a],Nc1cc2cc(-c3noc(C(F)(F)F)n3)ccc2cn1 [Compound I-055]
5,2.90^[a],CC(=O)Nc1cc2cc(-c3noc(C(F)(F)F)n3)ccc2cn1 [Compound I-054]
6,3.31^[a],O=C(C1CC1)N1CCc2cc(-c3noc(C(F)(F)F)n3)ccc2C1 [Compound I-047]
7,3.92^[a],Fc1cc2nn(Cc3ccccc3)cc2cc1-c1noc(C(F)(F)F)n1 [Compound I-065]
8,2.75^[a],FC(F)(F)c1nc(-c2ccc3ncc(Br)n3c2)no1 [Compound I-036]
9,3.63^[a],COC(=O)N1CCc2cc(-c3noc(C(F)(F)F)n3)ccc2C1 [Compound I-048]
10,3.45^[a],COC(=O)Nc1cc2cc(-c3noc(C(F)(F)F)n3)ccc2cn1 [Compound I-051]
11,2.71^[a],CC(=O)N1CCc2cc(-c3noc(C(F)(F)F)n3)ccc2C1 [Compound I-049]
12,3.62^[a],ON=C1CCCc2cc(-c3noc(C(F)(F)F)n3)ccc21 [Compound I-001]
13,3.68^[a],FC(F)(Cl)c1nc(-c2ccc3cc[nH]c3c2)no1 [Compound I-046]
14,4.11^[a],Fc1cc2nn(Cc3ccccc3)cc2cc1-c1noc(C(F)(F)Cl)n1 [Compound I-066]
15,3.33^[a],CCC(=O)Nc1cc2cc(-c3noc(C(F)(F)F)n3)ccc2cn1 [Compound I-052]
16,4.34^[a],FC(F)(F)c1nc(-c2ccc3cnn(Cc4ccccc4)c3c2)no1 [Compound I-007]

row,LogP,Structure (SMILES)
1,1.60^[a],CCn1c(C)nc2cc(-c3noc(C(F)(F)F)n3)ccc21 [Compound I-045]
2,2.78^[a],Fc1cc2[nH]ncc2cc1-c1noc(C(F)(F)Cl)n1 [Compound I-062]
3,3.83^[a],O=C(Cc1ccccc1)N1CCc2cc(-c3noc(C(F)(F)F)n3)ccc2C1 [Compound I-050]
4,2.32^[a],CC(=O)Nc1ccc(-c2noc(C(F)(F)F)n2)c2c1CCO2 [Compound I-053]
5,3.23^[a],FC(F)(Cl)c1nc(-c2ccc3ncn(Cc4ccccc4)c3c2)no1 [Compound I-058]
6,2.84^[a],FC(F)(Cl)c1nc(-c2ccc3[nH]ncc3c2)no1 [Compound I-063]
7,3.06^[a],FC(F)(F)c1nc(-c2ccc3ncn(Cc4ccccc4)c3c2)no1 [Compound I-059]
8,2.61^[a],Fc1cc2[nH]ncc2cc1-c1noc(C(F)(F)F)n1 [Compound I-061]
9,1.86^[a],Cn1cnc2cc(-c3noc(C(F)(F)Cl)n3)ccc21 [Compound I-060]
10,3.41^[a],O=C(c1cnc2ccc(-c3noc(C(F)(F)F)n3)cn12)C(F)(F)F [Compound I-035]
11,2.59^[a],CCOC(=O)c1cn2cc(-c3noc(C(F)(F)F)n3)ccc2n1 [Compound I-039]
12,4.03^[a],COC(=O)N1CCCc2cc(-c3noc(C(F)(F)F)n3)ccc21 [Compound I-028]
13,2.78^[a],FC(F)(F)c1nc(-c2cc(Cl)c3nn[nH]c3c2)no1 [Compound I-044]
14,3.21^[a],FC(F)(F)c1nc(-c2ccc3ncsc3c2)no1 [Compound I-043]
15,2.18^[a],COCCNC(=O)c1cn2cc(-c3noc(C(F)(F)F)n3)ccc2n1 [Compound I-037]

# Same assay, conditions: method [a]: LC-UV, acidic range, 0.1% formic acid in water and acetonitrile as eluent
row,Structure (SMILES),LogP
1,O=C(Nc1ccc2cc(-c3noc(C(F)(F)F)n3)ccc2c1)C(F)(F)F [Compound I-057],4.27^[a]

# Same assay, conditions: reversed phase HPLC column; method [a]: LC-UV, acidic range, 0.1% formic acid in water and acetonitrile as eluent
row,chromatographic logP,Structure (SMILES)
1,6.04,"CCN(OC)C1CCCc2cc(-c3noc(C(F)(F)F)n3)ccc21 (stereo not drawn) [Compound I-023, N-Ethyl-O-methyl-N-{6-[5-(trifluoromethyl)-1,2,4-oxadiazol-3-yl]-1,2,3,4-tetrahydronaphthalen-1-yl}hydroxylamine]"
2,4.08,"CONC1CCCc2cc(-c3noc(C(F)(F)F)n3)ccc21 (stereo not drawn) [Compound I-018, O-Methyl-N-{6-[5-(trifluoromethyl)-1,2,4-oxadiazol-3-yl]-1,2,3,4-tetrahydronaphthalen-1-yl}hydroxylamine]"
